Columns and labels:
[1] = target: T1, 5-hydroxytryptamine receptor 2A (Homo sapiens, UniProt P28223); test: Inverse agonist activity at human prefrontal cortex 5-HT2A receptor assessed as […] in [35S]GTPgammaS binding by liquid scintillation spectrometry analysis; type: functional, tissue-based
[2] = target: T1, 5-hydroxytryptamine receptor 2A; test: Inverse agonist activity at human 5-HT2A receptor expressed in cell membrane assessed as […] in [35S]GTPgammaS binding by liquid scintillation spectrometry analysis; type: functional, cell membranes
[3] = target: T1, 5-hydroxytryptamine receptor 2A; test: Displacement of [3H]ketanserin from human 5-HT2A receptor incubated for 120 mins by microbeta liquid scintillation counter analysis
[4] = target: T1, 5-hydroxytryptamine receptor 2A; test: Displacement of [3H]ketanserin from postmortem human brain membrane homogenate 5-HT2A receptor incubated for 120 mins by microbeta liquid scintillation counter analysis; type: cell membranes
[5] = target: T1, 5-hydroxytryptamine receptor 2A; test: Inverse agonist activity at human postmortem human brain membrane 5-HT2A receptor assessed as […] in [35S]GTPgammaS binding by liquid scintillation spectrometry analysis; type: functional, cell membranes
[6] = target: T1, 5-hydroxytryptamine receptor 2A; test: Inverse agonist activity at human 5-HT2A receptor assessed as […] in [35S]GTPgammaS binding by liquid scintillation spectrometry analysis; type: functional
[7] = target: T1, 5-hydroxytryptamine receptor 2A; test: Displacement of [3H]ketanserin from human brain cortex 5-HT2A receptor by Cheng-Prusoff equation analysis; type: tissue-based
[8] = target: T1, 5-hydroxytryptamine receptor 2A; test: Displacement of [3H]ketanserin human recombinant 5-HT2A receptor by Cheng-Prusoff equation analysis

T1 sequence (P28223 whole entry): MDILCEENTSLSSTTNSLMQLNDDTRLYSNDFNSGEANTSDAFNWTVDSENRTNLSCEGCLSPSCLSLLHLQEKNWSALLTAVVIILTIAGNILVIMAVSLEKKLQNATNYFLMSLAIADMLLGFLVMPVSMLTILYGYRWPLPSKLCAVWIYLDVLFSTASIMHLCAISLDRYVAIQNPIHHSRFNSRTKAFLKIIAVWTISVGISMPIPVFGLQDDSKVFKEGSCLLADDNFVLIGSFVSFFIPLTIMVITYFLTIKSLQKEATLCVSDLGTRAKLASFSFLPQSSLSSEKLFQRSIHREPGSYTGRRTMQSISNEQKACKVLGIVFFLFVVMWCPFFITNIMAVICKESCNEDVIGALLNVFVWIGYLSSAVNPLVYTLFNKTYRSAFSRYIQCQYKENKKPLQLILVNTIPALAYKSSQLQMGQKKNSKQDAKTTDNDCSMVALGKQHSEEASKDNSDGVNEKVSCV

CC1Cc2cc(CNC(=O)N(Cc3ccc(F)cc3)C3CCN(C)CC3)ccc2O1 (stereo not given)
IC50 [1]: 12600 pM
IC50 [2]: 79400 pM
Ki [3]: 31.6 pM
Ki [4]: 501 pM
IC50 [5]: 251 pM
IC50 [6]: 251 pM

CN1CCC(N(Cc2ccc(F)cc2)C(=O)NCc2ccc3c(c2)CC(C)(C)O3)CC1
IC50 [1]: 12600 pM
IC50 [2]: 79400 pM
Ki [3]: 2.51 pM
Ki [4]: 50.1 pM
IC50 [5]: 50.1 pM
IC50 [6]: 63.1 pM
Ki [7]: 60 pM
Ki [8]: 3 pM

CC1COc2ccc(CNC(=O)N(Cc3ccc(F)cc3)C3CCN(C)CC3)cc21 (stereo not given)
IC50 [1]: 12600 pM
IC50 [2]: 79400 pM
Ki [3]: 158 pM
Ki [4]: 5010 pM
IC50 [5]: 316 pM
IC50 [6]: 158 pM

Source: ChEMBL document CHEMBL5331125, “Design, Synthesis, Molecular Docking, and Biological Evaluation of Novel Pimavanserin-Based Analogues as Potential Serotonin 5-HT2A Receptor Inverse Agonists” (J Med Chem, 2023)
